Source: publication PMC6409085, “Three odorant-binding proteins are involved in the behavioral response of Sogatella furcifera to rice plant volatiles” (PeerJ, 2019)

Columns and labels:
Assay in all cases: biochemical
Assay type in all cases: binding
[1] = target: SfurOBP11 (Sogatella furcifera, UniProt V5T6E3); conditions: SfurOBP11; protein and 1-NPN both 2.0 µM; competitor 2-20 µM; read-out: IC50
Protocol: (§1) Thirty-six rice odorants ([He et al., 2014]; [Wang et al., 2017]) and 1-N-phenyl-naphthylamine (1-NPN) were purchased from Sigma-Aldrich (St Louis, MO, USA). These odorants and 1-NPN were dissolved in high-performance liquid chromatography (HPLC) purify grade methanol for 1.0 mM as work solution.
(§2) Fluorescence competitive binding assays were performed on Tecan Spark 10M (Tecan Group Ltd., Männedorf, Switzerland) with the F96 Black ELIAS Plate (Sangon) ([Khuhro et al., 2017]; [Liu et al., 2017]). The solutions were excited at 337 nm and emission spectra were recorded between 390 and 490 nm. First, to test the binding constants of 1-NPN to the SfurOBPs, a 2.0 µM solution of protein in 50 mM Tris-HCl (pH = 7.4) was titrated with 1 mM 1-NPN to achieve virous concentrations. Next, the competitive binding of each odorant was measured using the 1-NPN as fluorescent reporter and odorant as competitor. The concentrations of protein and 1-NPN were both 2.0 µM, the odorant added after protein and 1-NPN added into the well of ELIAS Plate for 2 min. The final concentrations of each competitor were 2, 4, 6, 8, 10, 12, 14, 16, 18 and 20 µM. After 2 min of odorant added, the fluorescence intensity was measured and recorded. The volume of mixed solution in each well was maintained at 250 µL. Each interaction was performed in triplicates.
(§3) GraphPad Prism 7.0 software (GraphPad Software, Inc., La Jolla, CA, USA) was used to calculated and generated the binding constants (K1−NPN) of 1-NPN to SfurOBPs and relative Scatchard plots ([Ban et al., 2003]; [Li et al., 2016]). Dissociation constant (Ki) of each odorant to SfurOBP was computed from the corresponding IC50 value (the half maximal inhibitory concentration), using the following equation: Ki=[IC50]/(1 + [1-NPN]/K1−NPN), where [1-NPN] is the free concentration of 1-NPN and K1−NPN is the dissociation constant of the complex protein/1-NPN.

[2] = target: SfurOBP1 (Sogatella furcifera, UniProt V5T8N5); conditions: SfurOBP1; protein and 1-NPN both 2.0 µM; competitor 2-20 µM; read-out: IC50
Chain of SfurOBP1 (V5T8N5 entry or part of it): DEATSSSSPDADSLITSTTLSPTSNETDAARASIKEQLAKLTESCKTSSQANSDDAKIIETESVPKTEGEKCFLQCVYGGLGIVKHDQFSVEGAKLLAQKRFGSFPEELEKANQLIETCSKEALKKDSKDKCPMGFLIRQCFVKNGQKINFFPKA
Protocol: as §1, §2, §3

[3] = target: SfurOBP2 (Sogatella furcifera, UniProt V5T759); conditions: SfurOBP2; protein and 1-NPN both 2.0 µM; competitor 2-20 µM; read-out: IC50
Chain of SfurOBP2 (V5T759 entry or part of it): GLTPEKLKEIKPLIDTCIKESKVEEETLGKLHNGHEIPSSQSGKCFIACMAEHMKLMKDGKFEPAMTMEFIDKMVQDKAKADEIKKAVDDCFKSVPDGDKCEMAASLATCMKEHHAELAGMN
Protocol: as §1, §2, §3

[4] = target: SfurOBP3 (Sogatella furcifera, UniProt V5T818); conditions: SfurOBP3; protein and 1-NPN both 2.0 µM; competitor 2-20 µM; read-out: IC50
Chain of SfurOBP3 (V5T818 entry or part of it): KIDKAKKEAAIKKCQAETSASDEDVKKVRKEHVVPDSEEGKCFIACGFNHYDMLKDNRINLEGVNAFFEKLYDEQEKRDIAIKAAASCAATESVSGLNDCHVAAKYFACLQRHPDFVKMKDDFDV
Protocol: as §1, §2, §3

Measured: IC50

Chain of SfurOBP11 (V5T6E3 entry or part of it): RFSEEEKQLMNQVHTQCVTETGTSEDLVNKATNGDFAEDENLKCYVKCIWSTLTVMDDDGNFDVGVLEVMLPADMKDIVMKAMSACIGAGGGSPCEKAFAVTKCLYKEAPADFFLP

CCCCCCCCCCCCCCCC(=O)OC [methyl hexadecanoate]
> 20 µM: all assays above
